The numbers were not newly measured in patent US11701425B2, “Valerian composition and related methods” (Société des Produits Nestlé S.A., priority 2016, dated 2023), which cites them from elsewhere.

For this series the following is noted: reported value, no test by the applicant.

As for `CC1=C2[C@H](/C=C(\C)C(=O)O)CC[C@@H](C)[C@H]2CC1` [valerenic acid], the pKa entry is on record as “about 5”.
For the molecule `CCCC(CCC)C(=O)O` [valproic acid], the pKa entry was “about 5”.
